Source: ChEMBL document CHEMBL3991601, “The target landscape of clinical kinase drugs” (Science, 2017)
Calls of active or inactive are those of the source.

Tests used:
[1] = target: T1, Acyl-CoA dehydrogenase family member 10 (Homo sapiens, UniProt Q6JQN1)
T1 sequence (Q6JQN1 whole entry): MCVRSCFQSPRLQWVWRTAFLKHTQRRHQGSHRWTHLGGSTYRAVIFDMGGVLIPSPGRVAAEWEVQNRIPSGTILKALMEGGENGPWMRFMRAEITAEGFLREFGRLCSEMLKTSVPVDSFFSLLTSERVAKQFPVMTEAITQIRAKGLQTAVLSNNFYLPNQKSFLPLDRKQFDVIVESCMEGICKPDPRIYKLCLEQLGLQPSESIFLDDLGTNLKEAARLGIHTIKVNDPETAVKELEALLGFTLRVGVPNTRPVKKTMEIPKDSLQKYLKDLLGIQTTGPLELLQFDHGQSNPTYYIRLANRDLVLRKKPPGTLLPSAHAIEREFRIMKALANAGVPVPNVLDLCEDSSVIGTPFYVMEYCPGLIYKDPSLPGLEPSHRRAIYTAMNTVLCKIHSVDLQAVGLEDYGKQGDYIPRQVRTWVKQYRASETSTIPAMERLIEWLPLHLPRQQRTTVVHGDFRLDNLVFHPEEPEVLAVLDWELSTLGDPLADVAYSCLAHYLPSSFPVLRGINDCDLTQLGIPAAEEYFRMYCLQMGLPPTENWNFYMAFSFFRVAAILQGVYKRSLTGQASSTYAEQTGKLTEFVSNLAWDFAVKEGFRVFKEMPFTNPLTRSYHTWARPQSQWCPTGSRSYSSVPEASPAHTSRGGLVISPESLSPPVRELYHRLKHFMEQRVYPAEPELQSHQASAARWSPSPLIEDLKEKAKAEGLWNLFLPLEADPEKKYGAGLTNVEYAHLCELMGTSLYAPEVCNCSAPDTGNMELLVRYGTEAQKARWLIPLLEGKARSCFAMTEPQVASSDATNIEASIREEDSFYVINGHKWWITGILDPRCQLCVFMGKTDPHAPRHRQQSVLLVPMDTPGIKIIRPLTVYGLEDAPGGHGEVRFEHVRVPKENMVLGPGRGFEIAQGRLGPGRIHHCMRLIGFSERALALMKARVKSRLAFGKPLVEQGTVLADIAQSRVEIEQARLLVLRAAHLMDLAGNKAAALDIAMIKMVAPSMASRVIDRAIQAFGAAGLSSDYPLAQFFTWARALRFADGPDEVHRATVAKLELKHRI

[2] = target: Tyrosine-protein kinase Fer (Homo sapiens, UniProt P16591)
Sequence of Tyrosine-protein kinase Fer (P16591 whole entry): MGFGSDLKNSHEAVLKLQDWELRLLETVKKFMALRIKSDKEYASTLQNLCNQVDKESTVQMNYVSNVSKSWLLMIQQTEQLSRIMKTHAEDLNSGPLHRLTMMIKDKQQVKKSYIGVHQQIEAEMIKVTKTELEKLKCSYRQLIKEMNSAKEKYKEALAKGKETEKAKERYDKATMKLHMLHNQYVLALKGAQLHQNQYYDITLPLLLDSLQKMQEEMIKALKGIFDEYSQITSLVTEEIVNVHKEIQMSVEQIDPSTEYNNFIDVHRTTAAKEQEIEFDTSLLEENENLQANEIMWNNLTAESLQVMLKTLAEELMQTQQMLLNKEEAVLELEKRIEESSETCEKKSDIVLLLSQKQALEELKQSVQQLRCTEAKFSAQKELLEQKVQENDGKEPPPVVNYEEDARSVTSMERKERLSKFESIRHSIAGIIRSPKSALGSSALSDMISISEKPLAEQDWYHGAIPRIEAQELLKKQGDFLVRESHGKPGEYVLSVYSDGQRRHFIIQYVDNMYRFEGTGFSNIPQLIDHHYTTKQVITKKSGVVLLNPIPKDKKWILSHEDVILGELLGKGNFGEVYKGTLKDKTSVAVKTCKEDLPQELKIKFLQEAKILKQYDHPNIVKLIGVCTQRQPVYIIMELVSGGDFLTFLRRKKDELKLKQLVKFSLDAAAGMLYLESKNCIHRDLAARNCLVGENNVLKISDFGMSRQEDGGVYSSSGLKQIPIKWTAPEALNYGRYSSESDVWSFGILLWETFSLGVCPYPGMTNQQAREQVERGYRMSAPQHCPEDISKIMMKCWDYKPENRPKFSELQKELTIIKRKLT

[3] = target: T2, Ribosyldihydronicotinamide dehydrogenase [quinone] (Homo sapiens, UniProt P16083)
T2 sequence (P16083 whole entry): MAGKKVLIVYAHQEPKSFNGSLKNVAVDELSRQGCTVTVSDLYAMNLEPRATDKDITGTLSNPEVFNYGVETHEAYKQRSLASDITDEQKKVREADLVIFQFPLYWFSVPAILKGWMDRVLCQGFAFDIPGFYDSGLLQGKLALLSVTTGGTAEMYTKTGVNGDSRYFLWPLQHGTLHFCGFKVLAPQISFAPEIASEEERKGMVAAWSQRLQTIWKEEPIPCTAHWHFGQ

[4] = target: Interleukin-1 receptor-associated kinase 1 (Homo sapiens, UniProt P51617)
Sequence of Interleukin-1 receptor-associated kinase 1 (P51617 whole entry): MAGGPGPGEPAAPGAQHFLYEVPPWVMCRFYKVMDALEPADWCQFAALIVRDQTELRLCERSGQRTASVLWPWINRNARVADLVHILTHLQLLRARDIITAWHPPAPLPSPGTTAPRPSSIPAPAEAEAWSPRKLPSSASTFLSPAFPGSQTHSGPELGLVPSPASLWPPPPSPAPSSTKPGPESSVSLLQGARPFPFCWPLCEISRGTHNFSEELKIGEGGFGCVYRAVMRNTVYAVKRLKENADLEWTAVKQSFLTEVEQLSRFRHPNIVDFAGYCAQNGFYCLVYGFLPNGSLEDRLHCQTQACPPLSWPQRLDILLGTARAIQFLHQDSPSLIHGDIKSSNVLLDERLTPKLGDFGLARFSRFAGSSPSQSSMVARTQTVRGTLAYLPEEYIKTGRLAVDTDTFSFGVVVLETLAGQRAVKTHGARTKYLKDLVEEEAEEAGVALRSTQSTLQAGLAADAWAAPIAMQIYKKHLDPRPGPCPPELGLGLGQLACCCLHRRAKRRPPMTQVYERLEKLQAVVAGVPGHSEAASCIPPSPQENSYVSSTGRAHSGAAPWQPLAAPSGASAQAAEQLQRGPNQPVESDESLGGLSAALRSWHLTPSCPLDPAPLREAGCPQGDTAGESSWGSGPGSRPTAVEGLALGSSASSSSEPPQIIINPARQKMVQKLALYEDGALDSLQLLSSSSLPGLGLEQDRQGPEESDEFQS

[5] = target: Cyclin-dependent kinase 4 (Homo sapiens, UniProt P11802)
Sequence of Cyclin-dependent kinase 4 (P11802 whole entry): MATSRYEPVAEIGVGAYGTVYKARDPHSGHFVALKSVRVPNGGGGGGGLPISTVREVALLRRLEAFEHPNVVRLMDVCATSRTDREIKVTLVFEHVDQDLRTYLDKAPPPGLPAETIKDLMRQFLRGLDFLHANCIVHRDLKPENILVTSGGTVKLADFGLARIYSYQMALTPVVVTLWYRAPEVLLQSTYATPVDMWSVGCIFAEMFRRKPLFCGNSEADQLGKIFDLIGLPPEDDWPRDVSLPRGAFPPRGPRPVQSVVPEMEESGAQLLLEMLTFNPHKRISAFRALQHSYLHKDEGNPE

Deoxycytidine kinase = Deoxycytidine kinase (Homo sapiens, UniProt P27707)
Sequence of Deoxycytidine kinase (P27707 whole entry): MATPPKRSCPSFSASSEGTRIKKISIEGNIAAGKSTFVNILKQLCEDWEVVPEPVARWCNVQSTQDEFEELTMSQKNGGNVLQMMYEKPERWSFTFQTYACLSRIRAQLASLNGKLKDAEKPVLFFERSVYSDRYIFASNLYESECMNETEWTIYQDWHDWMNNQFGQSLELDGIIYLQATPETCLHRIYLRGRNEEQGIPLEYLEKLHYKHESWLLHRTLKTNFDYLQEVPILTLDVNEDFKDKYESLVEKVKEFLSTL

[6] = target: T3, Cytochrome c1, heme protein, mitochondrial (Homo sapiens, UniProt P08574)
T3 sequence (P08574 whole entry): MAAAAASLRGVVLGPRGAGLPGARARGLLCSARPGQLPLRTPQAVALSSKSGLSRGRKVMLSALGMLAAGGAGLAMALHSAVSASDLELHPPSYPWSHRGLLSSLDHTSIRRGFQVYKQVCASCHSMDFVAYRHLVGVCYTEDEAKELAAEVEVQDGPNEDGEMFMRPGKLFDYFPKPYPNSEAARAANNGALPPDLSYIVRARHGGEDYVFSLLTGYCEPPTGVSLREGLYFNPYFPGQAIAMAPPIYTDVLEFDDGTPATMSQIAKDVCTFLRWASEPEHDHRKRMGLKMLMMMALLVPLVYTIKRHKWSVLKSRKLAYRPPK

[7] = target: T4, Mitogen-activated protein kinase kinase kinase 3 (Homo sapiens, UniProt Q99759)
T4 sequence (Q99759 whole entry): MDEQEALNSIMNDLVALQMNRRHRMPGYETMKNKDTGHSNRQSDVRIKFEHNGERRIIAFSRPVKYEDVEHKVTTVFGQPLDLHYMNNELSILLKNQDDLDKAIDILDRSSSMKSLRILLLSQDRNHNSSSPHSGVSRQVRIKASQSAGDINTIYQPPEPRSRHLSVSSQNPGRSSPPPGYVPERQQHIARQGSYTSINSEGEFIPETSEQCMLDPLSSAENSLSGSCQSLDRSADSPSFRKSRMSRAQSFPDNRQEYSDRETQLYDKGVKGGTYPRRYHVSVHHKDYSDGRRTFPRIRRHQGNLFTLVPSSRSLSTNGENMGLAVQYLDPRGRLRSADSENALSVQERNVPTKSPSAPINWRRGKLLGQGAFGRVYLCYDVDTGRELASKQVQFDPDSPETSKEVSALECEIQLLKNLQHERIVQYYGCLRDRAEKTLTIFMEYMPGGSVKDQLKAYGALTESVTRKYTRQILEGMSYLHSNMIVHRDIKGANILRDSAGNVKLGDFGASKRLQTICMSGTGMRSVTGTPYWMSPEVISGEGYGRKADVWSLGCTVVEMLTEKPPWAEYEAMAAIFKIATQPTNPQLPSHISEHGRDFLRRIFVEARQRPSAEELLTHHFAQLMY

[8] = target: RAC-alpha serine/threonine-protein kinase (Homo sapiens, UniProt P31749)
Sequence of RAC-alpha serine/threonine-protein kinase (P31749 whole entry): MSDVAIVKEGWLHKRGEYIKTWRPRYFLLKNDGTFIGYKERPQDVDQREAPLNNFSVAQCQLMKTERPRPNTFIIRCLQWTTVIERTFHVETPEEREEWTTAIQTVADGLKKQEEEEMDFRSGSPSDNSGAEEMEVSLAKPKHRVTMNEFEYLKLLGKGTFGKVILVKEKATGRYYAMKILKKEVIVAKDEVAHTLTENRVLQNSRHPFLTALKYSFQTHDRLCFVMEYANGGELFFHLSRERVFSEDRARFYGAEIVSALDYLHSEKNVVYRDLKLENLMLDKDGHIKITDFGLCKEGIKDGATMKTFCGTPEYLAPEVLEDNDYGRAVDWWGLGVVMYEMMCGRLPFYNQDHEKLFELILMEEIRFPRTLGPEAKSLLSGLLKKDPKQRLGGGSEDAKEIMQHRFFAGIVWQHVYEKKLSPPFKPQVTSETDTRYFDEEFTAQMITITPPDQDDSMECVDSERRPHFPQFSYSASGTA

Aurora kinase A = target: T5, Aurora kinase A (Homo sapiens, UniProt O14965)
T5 sequence (O14965 whole entry): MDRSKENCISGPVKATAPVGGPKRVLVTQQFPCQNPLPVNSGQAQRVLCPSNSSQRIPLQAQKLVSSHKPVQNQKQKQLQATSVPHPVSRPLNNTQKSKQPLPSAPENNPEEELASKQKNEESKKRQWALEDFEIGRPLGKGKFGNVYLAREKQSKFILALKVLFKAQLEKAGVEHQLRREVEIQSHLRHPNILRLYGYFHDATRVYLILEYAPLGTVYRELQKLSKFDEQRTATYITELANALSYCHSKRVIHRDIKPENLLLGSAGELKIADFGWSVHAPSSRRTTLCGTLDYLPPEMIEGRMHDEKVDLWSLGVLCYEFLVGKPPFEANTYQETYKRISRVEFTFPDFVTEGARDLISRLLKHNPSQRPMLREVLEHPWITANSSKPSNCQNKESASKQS
Further: in the data inactive means no Kd found up to 30 µM.

SMILES	Kd [1]	Kd [2]	Kd [3]	Kd [4]	Kd [5]	Kd (Deoxycytidine kinase)	Kd [6]	Kd [7]	Kd [8]	Kd (Aurora kinase A)
COc1cc2nccc(Oc3ccc(NC(=O)C4(C(=O)Nc5ccc(F)cc5)CC4)cc3)c2cc1OC [CABOZANTINIB]	> 30 µM (inactive)	> 30 µM (inactive)	> 30 µM (inactive)	> 30 µM (inactive)	> 30 µM (inactive)	> 30 µM (inactive)	> 30 µM (inactive)	> 30 µM (inactive)	> 30 µM (inactive)	
Cc1cc(Nc2nc(N[C@@H](C)c3ncc(F)cn3)ncc2Cl)n[nH]1 [AZD-1480]	> 30 µM (inactive)	0.517 µM (active)	> 30 µM (inactive)	> 30 µM (inactive)	> 30 µM (inactive)	> 30 µM (inactive)	> 30 µM (inactive)	> 30 µM (inactive)	> 30 µM (inactive)	
CN(c1ncccc1CNc1nc(Nc2ccc3c(c2)CC(=O)N3)ncc1C(F)(F)F)S(C)(=O)=O [PF-00562271]	> 30 µM (inactive)		> 30 µM (inactive)		> 30 µM (inactive)	> 30 µM (inactive)	> 30 µM (inactive)	> 30 µM (inactive)		
COc1cc2c(Oc3ccc4[nH]c(C)cc4c3F)ncnc2cc1OCCCN1CCCC1 [CEDIRANIB]	> 30 µM (inactive)		> 30 µM (inactive)			> 30 µM (inactive)	> 30 µM (inactive)			
CC1(C)CNc2cc(NC(=O)c3cccnc3NCc3ccncc3)ccc21 [MOTESANIB]	> 30 µM (inactive)		> 30 µM (inactive)			> 30 µM (inactive)	> 30 µM (inactive)			
CCOc1ccn(-c2ccc(F)cc2)c(=O)c1C(=O)Nc1ccc(Oc2ccnc(N)c2Cl)c(F)c1 [BMS-777607]	> 30 µM (inactive)	> 30 µM (inactive)	> 30 µM (inactive)		> 30 µM (inactive)	> 30 µM (inactive)	> 30 µM (inactive)	> 30 µM (inactive)	> 30 µM (inactive)	> 30 µM (inactive)
CN(C)C/C=C/C(=O)Nc1cc2c(Nc3ccc(F)c(Cl)c3)ncnc2cc1O[C@H]1CCOC1 [AFATINIB]	> 30 µM (inactive)		> 30 µM (inactive)			> 30 µM (inactive)	> 30 µM (inactive)			
Cn1cc(-c2[nH]c3cc(NC(=O)[C@H](N)C4CCCCC4)cc4c3c2C=NNC4=O)cn1	> 30 µM (inactive)	> 30 µM (inactive)	> 30 µM (inactive)	> 30 µM (inactive)	> 30 µM (inactive)	> 30 µM (inactive)	> 30 µM (inactive)	> 30 µM (inactive)	> 30 µM (inactive)	
CCc1nc(C(N)=O)c(Nc2ccc(N3CCC(N4CCN(C)CC4)CC3)c(OC)c2)nc1NC1CCOCC1 [GILTERITINIB]	> 30 µM (inactive)		1.7 µM (active)	> 30 µM (inactive)	1.95 µM (active)	> 30 µM (inactive)	0.202 µM	> 30 µM (inactive)	> 30 µM (inactive)	0.184 µM
Cn1cnc2c(F)c(Nc3ccc(Br)cc3Cl)c(C(=O)NOCCO)cc21 [SELUMETINIB]	> 30 µM (inactive)		> 30 µM (inactive)			> 30 µM (inactive)	> 30 µM (inactive)			
Cn1c(=O)n(-c2ccc(C(C)(C)C#N)cc2)c2c3cc(-c4cnc5ccccc5c4)ccc3ncc21 [DACTOLISIB]	> 30 µM (inactive)	> 30 µM (inactive)	> 30 µM (inactive)		> 30 µM (inactive)	> 30 µM (inactive)	> 30 µM (inactive)	> 30 µM (inactive)		
COc1cc2c(N3CCN(C(=O)Nc4ccc(OC(C)C)cc4)CC3)ncnc2cc1OCCCN1CCCCC1 [TANDUTINIB]	> 30 µM (inactive)		> 30 µM (inactive)			> 30 µM (inactive)	> 30 µM (inactive)			
O=S(=O)(c1cccc2cnccc12)N1CCCNCC1 [FASUDIL]	> 30 µM (inactive)	> 30 µM (inactive)	2.45 µM (active)	> 30 µM (inactive)	> 30 µM (inactive)	> 30 µM (inactive)	> 30 µM (inactive)	> 30 µM (inactive)		> 30 µM (inactive)
CCN(CCCOc1ccc2c(Nc3cc(CC(=O)Nc4cccc(F)c4)n[nH]3)ncnc2c1)CCOP(=O)(O)O [BARASERTIB]	> 30 µM (inactive)	> 30 µM (inactive)	> 30 µM (inactive)	> 30 µM (inactive)	> 30 µM (inactive)	> 30 µM (inactive)	> 30 µM (inactive)	> 30 µM (inactive)	> 30 µM (inactive)	
CC1(COc2ccc3c(c2)ncn3-c2ccc3cccc(N4CCC(N)CC4)c3n2)COC1 [CRENOLANIB]	> 30 µM (inactive)	> 30 µM (inactive)			> 30 µM (inactive)	> 30 µM (inactive)	> 30 µM (inactive)	> 30 µM (inactive)	> 30 µM (inactive)	> 30 µM (inactive)
C[C@@]1(C(=O)Nc2ccc(F)nc2)CCCN1c1nc(Nc2cc(C3CC3)n[nH]2)c2cccn2n1 [BMS-754807]	> 30 µM (inactive)		> 30 µM (inactive)			> 30 µM (inactive)	> 30 µM (inactive)			
CC(C)CC(=O)Nc1[nH]nc2c1CN(C(=O)C1CCN(C)CC1)C2(C)C [PHA-793887]	> 30 µM (inactive)		> 30 µM (inactive)		> 30 µM (inactive)	> 30 µM (inactive)	> 30 µM (inactive)	> 30 µM (inactive)	> 30 µM (inactive)	> 30 µM (inactive)
C[C@]1(O)C[C@@H](c2nc(-c3ccc4ccc(-c5ccccc5)nc4c3)c3c(N)nccn32)C1 [LINSITINIB]	> 30 µM (inactive)		> 30 µM (inactive)		> 30 µM (inactive)	> 30 µM (inactive)	> 30 µM (inactive)	> 30 µM (inactive)		
